Measured values: patent publication US20140206028A1, “Stable Electrically Active Neurons from Adult Tissue” (University of Central Florida Research Foundation, Inc., priority 2011, published 2014)

Tested on: adult rat hippocampal neurons
Assay: Whole-cell patch-clamp electrophysiology of cultured adult hippocampal neurons (electrical recovery)
Type: cell-based
Conditions: cycloheximide during incubation of confluent neurons with 25 μM glutamate
Protocol: Whole-cell, patch-clamp recordings were performed at room temperature. pH was adjusted to 7.3 with HEPES acid and base, ion concentrations with NaCl to approximately 130 mM, and osmolarity of 290-300 mOsm. Cells were visualized on the stage with a Zeiss Axioscope, 2 FS Plus, upright microscope in maintenance culture medium. Patch pipettes (4-8 M′Ω) were filled with intracellular solution (K-gluconate 140 mM, EGTA 1 mM, MgCl2 2 mM, Na2ATP 5 mM, HEPES 10 mM; pH 7.2), osmolarity approximately 260 mOsm. Voltage clamp and current clamp experiments were performed with a Multiclamp 700A (MDS Analytical Devices) amplifier. Signals were filtered at 3 kHz and digitized at 20 kHz with an Axon Digidata 1322A interface. Data recordings and analysis were performed with pClamp software. Whole-cell capacitance and series resistance were compensated electronically. Only cells with access resistance less than 22 M′Ω were analyzed. Inward currents that had the characteristics of fast sodium currents, and outward currents that had the characteristics of potassium currents were measured in voltage clamp mode using voltage steps of 10 mV from a −70 mV holding potential. Action potentials were measured with 1 s depolarizing current injections to elicit action potentials from a −70 mV holding potential. Cells were morphologically selected for electrophysiological characterization. […]

## C[C@@H]1C[C@@H]([C@H](O)CC2CC(=O)NC(=O)C2)C(=O)[C@@H](C)C1 [cycloheximide]
  glutamate-induced improvements in neuronal electrical activity: completely blocked
